# Measured values: PMC9609971, “Benzimidazole Bearing Thiosemicarbazone Derivatives Act as Potent α-Amylase and α-Glucosidase Inhibitors; Synthesis, Bioactivity Screening and Molecular Docking Study” (Molecules, 2022)
# Legend:
# [1] = molecular target: T1, Porcine pancreatic α-amylase (Sus scrofa, UniProt P00690); assay: In vitro α-amylase activity assay (starch/dinitrosalicylic acid); format: biochemical; conditions: triplicate; ± SEM
# T1 construct: α-amylase solution (Porcine pancreatic α-amylase); from tissue; host or cells: porcine pancreas (from the enzyme's name only)
# T1 sequence (P00690 16-511): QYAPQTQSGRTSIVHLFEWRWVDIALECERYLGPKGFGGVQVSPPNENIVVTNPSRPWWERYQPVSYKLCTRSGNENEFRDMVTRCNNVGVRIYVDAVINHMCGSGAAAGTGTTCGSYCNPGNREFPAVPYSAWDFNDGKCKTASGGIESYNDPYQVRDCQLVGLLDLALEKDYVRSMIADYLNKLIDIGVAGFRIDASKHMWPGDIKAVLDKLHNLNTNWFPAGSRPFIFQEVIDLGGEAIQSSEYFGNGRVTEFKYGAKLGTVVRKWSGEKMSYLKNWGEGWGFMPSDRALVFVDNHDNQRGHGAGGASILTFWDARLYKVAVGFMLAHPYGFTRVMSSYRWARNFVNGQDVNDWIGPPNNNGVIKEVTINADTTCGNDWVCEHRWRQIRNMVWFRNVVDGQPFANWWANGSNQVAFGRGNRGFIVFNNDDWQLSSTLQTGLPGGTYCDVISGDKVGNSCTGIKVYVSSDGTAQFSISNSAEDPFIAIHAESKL
# Procedure: α-Amylase inhibition was determined by an assay modified by Kwon, Apostolidis & Shetty. A total of 40 μL of sample and 40 μL of 0.02 M sodium phosphate buffer (pH 6.9 with 0.006 M sodium chloride) containing α-amylase solution (Porcine pancreatic α-amylase) (0.5 mg/mL) were incubated at 25 °C for 10 min. After pre-incubation, 40 μL of a 1% starch solution in 0.02 M sodium phosphate buffer (pH 6.9 with 0.006 M sodium chloride) was added to each tube at 5 s intervals. The reaction mixtures were then incubated at 25 °C for 10 min. The reaction was stopped with 100 μL of dinitrosalicylic acid color reagent. The test tubes were then incubated in a boiling water bath for 5 min and cooled to room temperature. The reaction mixture was then diluted after adding 900 μL of distilled water, and the absorbance was measured at 540 nm. […] All reactions were carried out in triplicate.
# [2] = molecular target: crude intestinal α-glucosidase; assay: In vitro α-glucosidase activity assay (p-nitrophenyl-α-D-glucopyranoside substrate); format: biochemical; conditions: triplicate; ± SEM
# Procedure: The α-Glucosidase activity was determined by a slight modification to the already-reported method. In a 96-well microplate, 10 μL of test samples (5 mg/mL DMSO solution) were reconstituted in 100 μL of 100 mM-phosphate buffer (pH 6.8) and incubated with 50 μL of crude intestinal α-glucosidase for 5 min before 50 μL substrate (5 mM, p-nitrophenyl-α-D-glucopyranoside prepared in the same buffer) was added. The release of p-nitrophenol was measured at 405 nm spectrophotometrically for 5 min after incubation with the substrate. Individual blanks for test samples were prepared to correct background absorbance where the substrate was replaced with 50 μL of the buffer. The control sample contained 10 μL DMSO in place of the test samples. All reactions were carried out in triplicate.
# The percentage of enzyme inhibition was calculated as (1 − B/A) × 100.
# Where A represents the absorbance of control without test samples, and B represents absorbance in the presence of test samples.
IC50 [1] [µM],IC50 [2] [µM],Compound
2.1 ± 0.2,3.1 ± 0.2,"O=[N+]([O-])c1ccc(/C=N/NC(=S)NN=C(CSc2nc3ccccc3[nH]2)c2ccc(Cl)c(Cl)c2)cc1 [derivative 13, N′-(2-((1H-Benzo[d]imidazol-2-yl)thio)-1-(3,4-dichlorophenyl)ethylidene)-2-((E)-4-nitrobenzylidene)hydrazine-1-carbothiohydrazide]"
6.1 ± 0.2,7.1 ± 0.01,"O=[N+]([O-])c1cccc(/C=N/NC(=S)NN=C(CSc2nc3ccccc3[nH]2)c2ccc(Cl)c(Cl)c2)c1 [derivative 14, N′-(2-((1H-Benzo[d]imidazol-2-yl)thio)-1-(3,4-dichlorophenyl)ethylidene)-2-((E)-3-nitrobenzylidene)hydrazine-1-carbothiohydrazide]"
17.1 ± 0.01,18.1 ± 0.2,"O=[N+]([O-])c1ccccc1/C=N/NC(=S)NN=C(CSc1nc2ccccc2[nH]1)c1ccc(Br)cc1 [derivative 15, N′-(2-((1H-Benzo[d]imidazol-2-yl)thio)-1-(4-bromophenyl)ethylidene)-2-((E)-2-nitrobenzylidene)hydrazine-1-carbothiohydrazide]"
20.1 ± 0.2,21.1 ± 0.01,"Oc1ccc(/C=N/NC(=S)NN=C(CSc2nc3ccccc3[nH]2)c2ccc(Br)cc2)cc1 [derivative 16, N′-(2-((1H-Benzo[d]imidazol-2-yl)thio)-1-(4-bromophenyl)ethylidene)-2-((E)-4-hydroxybenzylidene)hydrazine-1-carbothiohydrazide]"
15.1 ± 0.2,16.1 ± 0.01,"O=[N+]([O-])c1ccc(/C=N/NC(=S)NN=C(CSc2nc3ccccc3[nH]2)c2ccc(Br)cc2)cc1 [derivative 17, N′-(2-((1H-Benzo[d]imidazol-2-yl)thio)-1-(4-bromophenyl)ethylidene)-2-((E)-4-nitrobenzylidene)hydrazine-1-carbothiohydrazide]"
13.2 ± 0.2,14.1 ± 0.01,"O=[N+]([O-])c1cccc(/C=N/NC(=S)NN=C(CSc2nc3ccccc3[nH]2)c2ccc(Br)cc2)c1 [derivative 18, N′-(2-((1H-Benzo[d]imidazol-2-yl)thio)-1-(4-bromophenyl)ethylidene)-2-((E)-3-nitrobenzylidene)hydrazine-1-carbothiohydrazide]"
1.2 ± 0.2,1.3 ± 0.2,Fc1cccc(/C=N/NC(=S)N/N=C(\CSc2nc3ccccc3[nH]2)c2cccc(F)c2)c1 [derivative 19]
21.1 ± 0.01,22.1 ± 0.2,"O=[N+]([O-])c1cccc(/C=N/NC(=S)N/N=C(\CSc2nc3ccccc3[nH]2)c2ccccc2)c1 [derivative 21, N′-((Z)-2-((1H-Benzo[d]imidazol-2-yl)thio)-1-phenylethylidene)-2-((E)-3-nitrobenzylidene)hydrazine-1-carbothiohydrazide]"

# The next lines start with the compound.
Compound,IC50 [1] [µM],IC50 [2] [µM]
"O=[N+]([O-])c1ccccc1/C=N/NC(=S)NN=C(CSc1nc2ccccc2[nH]1)c1ccc(-c2ccccc2)cc1 [derivative 7, N′-(2-((1H-Benzo[d]imidazol-2-yl)thio)-1-([1,1′-biphenyl]-4-yl)ethylidene)-2-((E)-2-nitrobenzylidene)hydrazine-1-carbothiohydrazide]",16.1 ± 0.01,14.2 ± 0.1
"O=[N+]([O-])c1ccc(/C=N/NC(=S)NN=C(CSc2nc3ccccc3[nH]2)c2ccc(-c3ccccc3)cc2)cc1 [derivative 8, N′-(2-((1H-Benzo[d]imidazol-2-yl)thio)-1-([1,1′-biphenyl]-4-yl)ethylidene)-2-((E)-4-nitrobenzylidene)hydrazine-1-carbothiohydrazide]",15.2 ± 0.2,17.2 ± 0.1
"O=[N+]([O-])c1cccc(/C=N/NC(=S)NN=C(CSc2nc3ccccc3[nH]2)c2ccc(-c3ccccc3)cc2)c1 [derivative 9, N′-(2-((1H-Benzo[d]imidazol-2-yl)thio)-1-([1,1′-biphenyl]-4-yl)ethylidene)-2-((E)-3-nitrobenzylidene)hydrazine-1-carbothiohydrazide]",13.1 ± 0.1,14.2 ± 0.2
"Oc1ccc(/C=N/NC(=S)NN=C(CSc2nc3ccccc3[nH]2)c2ccc(-c3ccccc3)cc2)cc1 [derivative 10, N′-(2-((1H-Benzo[d]imidazol-2-yl)thio)-1-([1,1′-biphenyl]-4-yl)ethylidene)-2-((E)-4-hydroxybenzylidene)hydrazine-1-carbothiohydrazide]",10.2 ± 0.02,11.2 ± 0.1
"O=[N+]([O-])c1ccccc1/C=N/NC(=S)NN=C(CSc1nc2ccccc2[nH]1)c1ccc(Cl)c(Cl)c1 [derivative 11, N′-(2-((1H-Benzo[d]imidazol-2-yl)thio)-1-(3,4-dichlorophenyl)ethylidene)-2-((E)-2-nitrobenzylidene)hydrazine-1-carbothiohydrazide]",3.1 ± 0.1,4.2 ± 0.1
"Oc1ccc(/C=N/NC(=S)NN=C(CSc2nc3ccccc3[nH]2)c2ccc(Cl)c(Cl)c2)cc1 [derivative 12, N′-(2-((1H-Benzo[d]imidazol-2-yl)thio)-1-(3,4-dichlorophenyl)ethylidene)-2-((E)-4-hydroxybenzylidene)hydrazine-1-carbothiohydrazide]",1.1 ± 0.2,2.2 ± 0.2
N′-((Z)-2-((1H-Benzo[d]imidazol-2-yl)thio)-1-(3-fluorophenyl)ethylidene)-2-((E)-2-methyl-4-nitrobenzylidene)hydrazine-1-carbothiohydrazide [derivative 20],1.4 ± 0.01,1.6 ± 0.2
